Assay [1] addresses T1, Dopamine beta-hydroxylase (Bos taurus, UniProt P15101).
T1 sequence (P15101 whole entry): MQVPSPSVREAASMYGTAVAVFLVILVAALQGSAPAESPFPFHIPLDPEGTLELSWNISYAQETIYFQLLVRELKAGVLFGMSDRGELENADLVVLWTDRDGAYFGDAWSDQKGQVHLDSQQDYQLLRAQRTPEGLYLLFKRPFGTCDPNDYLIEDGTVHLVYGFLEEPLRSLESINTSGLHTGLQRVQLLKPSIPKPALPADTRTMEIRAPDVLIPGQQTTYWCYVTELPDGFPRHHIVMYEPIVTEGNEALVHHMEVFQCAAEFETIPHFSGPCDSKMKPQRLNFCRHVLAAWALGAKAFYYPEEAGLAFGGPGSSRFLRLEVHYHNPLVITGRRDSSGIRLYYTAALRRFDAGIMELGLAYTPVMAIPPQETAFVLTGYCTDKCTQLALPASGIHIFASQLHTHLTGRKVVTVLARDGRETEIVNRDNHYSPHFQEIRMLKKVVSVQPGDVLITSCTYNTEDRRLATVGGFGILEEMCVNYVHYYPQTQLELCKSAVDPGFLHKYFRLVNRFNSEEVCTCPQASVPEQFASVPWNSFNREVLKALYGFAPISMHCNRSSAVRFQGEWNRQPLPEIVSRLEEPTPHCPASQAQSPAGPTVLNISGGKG
The assay can be described thus: Kinetic constant for inhibition (KI) of Dopamine beta-Hydroxylase (DBH) from bovine adrenal medulla. The assay is classed as tissue-based.

A short description of assay [2]: Ratio of kinetic constant k inact to KI was determined.
Assay [3] deals with T2, Dopamine beta-hydroxylase (Bos taurus) (UniProt P15101).
T2 sequence (whole entry): T1 sequence (P15101 whole entry)
Nature of the assay: Kinetic constant for inactivation (k inact) of Dopamine beta-Hydroxylase (DBH) from bovine adrenal medulla. The assay is classed as tissue-based.

`COc1ccc(CC2CC2)cc1` showed an inhibition constant Ki in assay [1] of 240 µM. In addition, in assay [2], the Ratio is 75 M⁻¹ min⁻¹. Moreover, the K inact in assay [3] is 0.018 min⁻¹.
In the case of `Oc1ccc(CC2CC2)cc1`, in assay [1], the inhibition constant Ki worked out at 12000 µM. Besides, in assay [2], the Ratio stood at 150 M⁻¹ min⁻¹.
For `Oc1cc2c(cc1O)C1CC1C2` (configuration not stated), the Ki in assay [1] came out at 109 µM. For the same molecule, the Ratio in assay [2] came out at 1180 M⁻¹ min⁻¹. Besides, in assay [3], the K inact amounted to 0.129 min⁻¹.
On the same counts, the results for `COc1ccc2c(c1)C1NC1C2` (configuration not stated) are 400 µM, 70 M⁻¹ min⁻¹ and 0.03 min⁻¹.
With `Oc1ccc2c(c1)C1CC1C2` (configuration not stated), in assay [1], the affinity, expressed as Ki, was 150 µM. For the same molecule, the Ratio in assay [2] was 1530 M⁻¹ min⁻¹. Also, the K inact in assay [3] was 0.23 min⁻¹.
Consider `c1ccc2c(c1)CC1OC21` (configuration not stated), for which the affinity in assay [1] corresponds to a Ki of 1060 µM. Besides, the Ratio in assay [2] is 70 M⁻¹ min⁻¹. The K inact in assay [3] came out at 0.08 min⁻¹.
On the same counts, the results for `c1c2c(cc3c1OCO3)C1OC1C2` (configuration not stated) are 1010 µM, 60 M⁻¹ min⁻¹ and 0.06 min⁻¹.
Taken in the same sequence, the figures for `c1c2c(cc3c1OCO3)C1CC1C2` (configuration not stated) were 160 µM, 370 M⁻¹ min⁻¹ and 0.06 min⁻¹.
Taken in the same sequence, the figures for `COc1ccc2c(c1)C1CC1C2` (configuration not stated) were 1120 µM, 100 M⁻¹ min⁻¹ and 0.11 min⁻¹.
Consider `c1ccc2c(c1)CC1CC21` (configuration not stated), for which the affinity in assay [1] corresponds to a Ki of 3030 µM. Also, in assay [2], the Ratio amounted to 70 M⁻¹ min⁻¹. In assay [3], the K inact turned out to be 0.2 min⁻¹.
On the same counts, the results for `COc1ccc2c(c1)C1OC1C2` (configuration not stated) are 650 µM, 110 M⁻¹ min⁻¹ and 0.07 min⁻¹.
